The assay has as its system HUVEC. Nature of the assay: Iodinated D30 binding to HUVEC monolayers and its competition. The arrangement: species or system human. The settings on record: 50 fold molar excess of cold fibrinogen; myoglobin as nonspecific protein. The method, then: Binding assays described above in Example 3A2) were also performed with the fibrinogen homolog, D30, to determine if that region of fibrinogen also immunoreacted with HUVEC. Since D30 was known to bind to leukocytes via the Mac-1 receptor as described by Altieri et al., J. Biol. Chem., 265:12119-12122 (1990), these experiments were performed to determine if regions of fibrinogen mediating the binding of leukocytes to HUVEC are contained within the D30 fragment. For this analysis, the D30 fragment of fibrinogen prepared in Example 1B was labelled with ^125I as described for labelling of fibrinogen above. Iodinated D30 was admixed to HUVEC monolayers at a concentration of 10 μg/ml to form a binding complex. After washing the cells to remove the unbound D30 as described in Example 3A2) above, the cells were solubilized and the amount of bound radioactivity was determined. The binding of D30 to HUVEC was maximal at 120 minutes of the maintenance period with approximately 60,000 cpm.

These results are taken from patent US6737058B2, “Methods for inhibiting endothelial cell and fibrinogen mediated inflammation using fibrinogen specific antibodies” (The Scripps Research Institute, priority 1992, dated 2004).

“fibrinogen: fibrinogen isolated from fresh plasma by cold ethanol fractionation, fibronectin-free”: the “competition of D30 binding to HUVEC” value is “specifically competed”.
